System: P12-Ichikawa
Experiment: cell viability relative to DMSO control; higher = less cytotoxic
Conditions: 48 h
Summary of the method: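 Viability values are per-plate percentages of DMSO wells, with background from cell-free wells. Library compounds in DMSO were pin-dosed, in an 11-point threefold series from 47 μM to 0.79 nM, onto NOMO1 or SEM (500 cells/well) or P12-Ichikawa (1000 cells/well) leukemia cells in 1536-well plates (5 μl). Those cells had been adapted for at least four passages in each medium, and CellTiter-Glo One luminescence was read after 48 h at 37°C.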

[1] = HPLM + 10% dialyzed FBS, 0.000781 µM
[2] = HPLM + 10% dialyzed FBS, 0.00234 µM
[3] = HPLM + 10% dialyzed FBS, 0.00702 µM
[4] = HPLM + 10% dialyzed FBS, 0.0211 µM
[5] = HPLM + 10% dialyzed FBS, 0.0632 µM
[6] = HPLM + 10% dialyzed FBS, 0.19 µM
[7] = HPLM + 10% dialyzed FBS, 0.569 µM
[8] = HPLM + 10% dialyzed FBS, 1.71 µM
[9] = HPLM + 10% dialyzed FBS, 5.12 µM
[10] = HPLM + 10% dialyzed FBS, 15.4 µM
[11] = HPLM + 10% dialyzed FBS, 46.1 µM
[12] = RPMI 5 mM glucose + 10% FBS, 0.000781 µM
[13] = RPMI 5 mM glucose + 10% FBS, 0.00234 µM
[14] = RPMI 5 mM glucose + 10% FBS, 0.00702 µM
[15] = RPMI 5 mM glucose + 10% FBS, 0.0211 µM
[16] = RPMI 5 mM glucose + 10% FBS, 0.0632 µM
[17] = RPMI 5 mM glucose + 10% FBS, 0.19 µM
[18] = RPMI 5 mM glucose + 10% FBS, 0.569 µM
[19] = RPMI 5 mM glucose + 10% FBS, 1.71 µM
[20] = RPMI 5 mM glucose + 10% FBS, 5.12 µM
[21] = RPMI 5 mM glucose + 10% FBS, 15.4 µM
[22] = RPMI 5 mM glucose + 10% FBS, 46.1 µM
[23] = RPMI 5 mM glucose + 10% dialyzed FBS, 0.000781 µM
[24] = RPMI 5 mM glucose + 10% dialyzed FBS, 0.00234 µM
[25] = RPMI 5 mM glucose + 10% dialyzed FBS, 0.00702 µM
[26] = RPMI 5 mM glucose + 10% dialyzed FBS, 0.0211 µM
[27] = RPMI 5 mM glucose + 10% dialyzed FBS, 0.0632 µM
[28] = RPMI 5 mM glucose + 10% dialyzed FBS, 0.19 µM
[29] = RPMI 5 mM glucose + 10% dialyzed FBS, 0.569 µM
[30] = RPMI 5 mM glucose + 10% dialyzed FBS, 1.71 µM
[31] = RPMI 5 mM glucose + 10% dialyzed FBS, 5.12 µM
[32] = RPMI 5 mM glucose + 10% dialyzed FBS, 15.4 µM
[33] = RPMI 5 mM glucose + 10% dialyzed FBS, 46.1 µM

Structure (SMILES)	cell viability [1] [%]	cell viability [2] [%]	cell viability [3] [%]	cell viability [4] [%]	cell viability [5] [%]	cell viability [6] [%]	cell viability [7] [%]	cell viability [8] [%]	cell viability [9] [%]	cell viability [10] [%]	cell viability [11] [%]	cell viability [12] [%]	cell viability [13] [%]	cell viability [14] [%]	cell viability [15] [%]	cell viability [16] [%]	cell viability [17] [%]	cell viability [18] [%]	cell viability [19] [%]	cell viability [20] [%]	cell viability [21] [%]	cell viability [22] [%]	cell viability [23] [%]	cell viability [24] [%]	cell viability [25] [%]	cell viability [26] [%]	cell viability [27] [%]	cell viability [28] [%]	cell viability [29] [%]	cell viability [30] [%]	cell viability [31] [%]	cell viability [32] [%]	cell viability [33] [%]
C=C1C(=O)OC(CCCCCCCC)C1C(=O)O (configuration not stated)	105	116	113	122	123	122	124	121	129	120	115	124	120	123	132	129	122	137	132	128	129	128	107	116	122	129	124	123	133	131	133	128	113
OC1=CC=C(C=C1)\C2=C\OC3=C(C(=CC(=C3)O)O)C2=O	107	114	112	118	114	116	119	118	118	117	122	103	104	116	107	116	126	116	125	115	115	85.9	103	105	108	112	119	114	120	116	95	113	69.5
CC(=O)N[C@@H]1[C@@H](NC(N)=N)\C=C(/O[C@H]1[C@H](O)[C@H](O)CO)C(O)=O	92.9	103	106	106	116	116	117	112	112	114	113	93.9	108	109	113	123	112	105	113	117	70.2	118	88.9	107	109	109	113	107	108	112	115	112	100
COc1cc([C@@H](CC(=O)O)c2ccc(C)c(CN3C[C@@H](C)Oc4ccccc4[S+]3(=O)[O-])c2)cc2nnn(C)c12	108	115	114	110	109	110	115	109	96.6	12.6	10.5	115	114	118	106	126	113	121	111	101	84	67.4	114	122	115	125	114	112	116	116	104	94.7	70.7
N[S+](=O)([O-])c1cc2c(cc1Cl)NC(C(Cl)Cl)N[S+]2(=O)[O-] (configuration not stated)	102	109	105	112	113	118	117	120	114	123	118	114	120	111	120	126	129	127	130	139	123	128	109	117	104	118	118	122	114	124	121	122	115
CC1=C(/C=C/C(C)=C/C=C/C(C)=C\C(=O)O)C(C)(C)CCC1	88.5	91.7	90.2	93.4	95.7	92.6	96.4	92.2	97.3	95.5	91.3	76.1	88.5	82.7	91	85.5	89.7	85.4	79.6	77.4	84.5	82.1	80.4	89.9	85	90	86.7	86.7	91.9	90.5	83.7	84.5	85.4
COc1cc(Nc2c(C#N)cnc3cc(OCCCN4CCN(C)CC4)c(OC)cc23)c(Cl)cc1Cl	112	112	110	110	117	120	120	97.6	42.4	4.36	4.46	103	123	112	115	121	122	122	109	54.2	6.74	5.61	111	110	126	128	124	127	129	105	64.5	7.05	5.93
COc1cc(CCc2cc(NC(=O)c3ccc(N4C[C@@H](C)N[C@@H](C)C4)cc3)n[nH]2)cc(OC)c1	124	136	118	130	123	121	120	119	109	107	90	–	–	–	–	–	–	–	–	–	–	–	–	–	–	–	–	–	–	–	–	–	–

Reference: the supplement of paper PMC11451515
